Square brackets hold non-standard residues; d marks the D form. Ends that are not written are not given here. Peptide text beside a SMILES is read from it. 1Nal = N[C@@H](Cc1cccc2ccccc12)C(=O)O; 3Pal = N[C@@H](Cc1cccnc1)C(=O)O
Experiments:
Candida albicans = assay type: cell-based
[1] = test system: rough mutant E. coli J5 bacteria; test: Radial diffusion bactericidal assay, E. coli J5; assay type: cell-based; conditions: radial diffusion; for pmol added to well to achieve a 30 mm^2 bactericidal zone, E. coli J5: PROBIT analysis, E. coli J5 (rough)
Experimental: BPI proteolytic fragments produced according to Example 1 were screened for bactericidal effects using rough mutant E. coli J5 bacteria in a radial diffusion assay. Specifically, an overnight culture of E. coli J5 was diluted 1:50 into fresh tryptic soy broth and incubated for 3 hours at 37° C. to attain log phase growth of the culture. Bacteria were then pelleted at 3,000 rpm for 5 minutes in a Sorvall RT6000B centrifuge (Sorvall Instruments, Newton, Conn.). 5 mL of 10 mM sodium phosphate buffer (pH 7.4) was added and the preparation was re-pelleted. […] The bacteria were diluted to 4×10^6 CFU/mL in 10 mL of molten underlayer agarose (at approximately 45° C.) and inverted repeatedly to mix in 15 mL polypropylene tubes conventionally used for this purpose.
The entire contents of such tubes were then poured into a level square petri dish and distributed evenly by rocking the dish side-to-side. […] A series of wells were then punched into the hardened agarose using a sterile 3 mm punch attached to a vacuum apparatus. The punch was sterilized with 100% alcohol and allowed to air dry prior to use to avoid contaminating the bacterial culture.
5 or 10 μL of each of the BPI fragments were carefully pipetted into each well. As a negative control, dilution buffer (pH 8.3) was added to a separate well, and rBPI23 at concentrations of 5 μg/mL and 1 μg/mL were also added as positive controls. Each plate was incubated at 37° C. for 3 hours, and then 10 mL of molten overlayer agarose (at approximately 45° C.) was added into the level petri dish, allowed to harden and incubated overnight at 37° C. […] The bacterial zones were measured with a micrometer.

Staphylococcus aureus = test: Radial diffusion bactericidal assay, Staphylococcus aureus; assay type: cell-based; conditions: radial diffusion; PROBIT analysis; S. aureus
[2] = test system: E. coli 0111:B4 (smooth) bacteria; test: Radial diffusion bactericidal assay, E. coli 0111:B4; assay type: cell-based; conditions: radial diffusion; PROBIT analysis; E. coli O111:B4 (smooth)
[3] = 3H-heparin binding assay (affinity and capacity); conditions: for Heparin Capacity: heparin bound at saturation; for Kd: read-out: Heparin Affinity
Experimental: Briefly, each fragment was added to wells of a 96-well microtiter plate having a polyvinylidene difluoride membrane (Immunobilon-P, Millipore, Bedford, Mass.) disposed at the bottom of the wells. […] Positive control wells contained varying amounts of rBPI23. […] DuPont-NEN, Wilmington, Del.) were made in the blocking buffer and incubated in the BPI peptide-containing wells for one hour at 4° C. The unbound heparin was aspirated and the wells were washed three times with blocking buffer, dried and removed for quantitation in a liquid scintillation counter (Model 1217, LKB, Gaithersburg, Md.). Although BSA in the blocking buffer did show a low affinity and capacity to bind heparin, this was considered physiologically irrelevant and the background was routinely subtracted from the test compound signal.

Molecule: CC[C@H](C)[C@H](N)C(=O)N[C@@H](CCCCN)C(=O)N[C@H](C(=O)N[C@@H](CO)C(=O)NCC(=O)N[C@@H](CCCCN)C(=O)N[C@@H](Cc1c[nH]c2ccccc12)C(=O)N[C@@H](CCCCN)C(=O)N[C@@H](C)C(=O)N[C@@H](Cc1cccc2ccccc12)C(=O)N[C@@H](Cc1cccc2ccccc12)C(=O)N[C@@H](CCCNC(=N)N)C(=O)N[C@@H](Cc1ccccc1)C(=O)N[C@@H](CC(C)C)C(=O)N[C@@H](CCCCN)C(=O)N[C@@H](CCCCN)C(=O)N[C@@H](CO)C(=O)N[C@@H](CCCCN)C(=O)N[C@H](C(=O)NCC(=O)N[C@@H](Cc1c[nH]c2ccccc12)C(=O)N[C@@H](CC(C)C)C(=O)N[C@H](C(=O)N[C@@H](CCC(N)=O)C(=O)N[C@@H](CC(C)C)C(=O)N[C@@H](Cc1ccccc1)C(=O)N[C@@H](Cc1c[nH]cn1)C(=O)N[C@@H](CCCCN)C(=O)N[C@@H](CCCCN)C(=O)O)[C@@H](C)CC)C(C)C)[C@@H](C)CC [BPI.158] (H-IKISGKWKA[1Nal][1Nal]RFLKKSKVGWLIQLFHKK-OH; N-terminus and C-terminus assumed)
- MIC C. alb (Candida albicans): >100.00 µg/mL

Molecule: IKKRAISFLGKKWQK [BPI.75]
- pmol added to well to achieve a 30 mm^2 bactericidal zone, E. coli J5 [1]: 2,708.40 pmol
- pmol added to well to achieve a 30 mm^2 bactericidal zone, S. aureus (Staphylococcus aureus): 9,508.60 pmol
- pmol added to well to achieve a 30 mm^2 bactericidal zone, E. coli O111:B4 [2]: b (no detectable activity up to 5 μg/well)
- Heparin Capacity [3]: 119.8 ng
- Kd [3]: 96 nM

Molecule: KWKAQWRFLKKWKAQWRFLKKWKAQWRFLK [BPI.99]
- pmol added to well to achieve a 30 mm^2 bactericidal zone, E. coli J5 [1]: 722.90 pmol
- pmol added to well to achieve a 30 mm^2 bactericidal zone, S. aureus (Staphylococcus aureus): 37,942,676.00 pmol
- pmol added to well to achieve a 30 mm^2 bactericidal zone, E. coli O111:B4 [2]: 60,037.52 pmol
- Heparin Capacity [3]: 971.4 ng
- Kd [3]: 9100 nM

Molecule: IAISGKWKAQKRFLA [BPI.60]
- pmol added to well to achieve a 30 mm^2 bactericidal zone, E. coli J5 [1]: 3,782.80 pmol
- pmol added to well to achieve a 30 mm^2 bactericidal zone, S. aureus (Staphylococcus aureus): b (no detectable activity up to 5 μg/well)
- pmol added to well to achieve a 30 mm^2 bactericidal zone, E. coli O111:B4 [2]: b (no detectable activity up to 5 μg/well)
- Heparin Capacity [3]: 120.3 ng
- Kd [3]: 64.8 nM

Molecule: GWLIQLFHKKIESALRNKMNS [BPI.55]
- pmol added to well to achieve a 30 mm^2 bactericidal zone, E. coli J5 [1]: 299.36 pmol
- pmol added to well to achieve a 30 mm^2 bactericidal zone, S. aureus (Staphylococcus aureus): 28,204.45 pmol
- pmol added to well to achieve a 30 mm^2 bactericidal zone, E. coli O111:B4 [2]: 3,702.60 pmol
- Heparin Capacity [3]: 166.1 ng
- Kd [3]: 368 nM

Molecule: IKISGKWKAKQRFLK [BPI.56]
- pmol added to well to achieve a 30 mm^2 bactericidal zone, E. coli J5 [1]: 1,387.00 pmol
- pmol added to well to achieve a 30 mm^2 bactericidal zone, S. aureus (Staphylococcus aureus): b (no detectable activity up to 5 μg/well)
- pmol added to well to achieve a 30 mm^2 bactericidal zone, E. coli O111:B4 [2]: b (no detectable activity up to 5 μg/well)
- Heparin Capacity [3]: 135.5 ng
- Kd [3]: 115 nM

Molecule: QQGTAALQKELKRIK [BPI.1]
- pmol added to well to achieve a 30 mm^2 bactericidal zone, E. coli J5 [1]: b (no detectable activity up to 5 μg/well)
- pmol added to well to achieve a 30 mm^2 bactericidal zone, S. aureus (Staphylococcus aureus): b (no detectable activity up to 5 μg/well)
- pmol added to well to achieve a 30 mm^2 bactericidal zone, E. coli O111:B4 [2]: b (no detectable activity up to 5 μg/well)
- Heparin Affinity [3]: no binding
- Heparin Capacity [3]: no binding

Molecule: IKISGKAβ-(3-pyridyl)KAQKRFLK (IKISGK[3Pal]KAQKRFLK) [BPI.70]
- pmol added to well to achieve a 30 mm^2 bactericidal zone, E. coli J5 [1]: b (no detectable activity up to 5 μg/well)
- pmol added to well to achieve a 30 mm^2 bactericidal zone, S. aureus (Staphylococcus aureus): b (no detectable activity up to 5 μg/well)
- pmol added to well to achieve a 30 mm^2 bactericidal zone, E. coli O111:B4 [2]: b (no detectable activity up to 5 μg/well)
- Heparin Capacity [3]: 59.2 ng
- Kd [3]: 145 nM

Molecule: IKISGAWAAQKRFLK [BPI.59]
- pmol added to well to achieve a 30 mm^2 bactericidal zone, E. coli J5 [1]: 3,718.00 pmol
- pmol added to well to achieve a 30 mm^2 bactericidal zone, S. aureus (Staphylococcus aureus): b (no detectable activity up to 5 μg/well)
- pmol added to well to achieve a 30 mm^2 bactericidal zone, E. coli O111:B4 [2]: b (no detectable activity up to 5 μg/well)
- Heparin Capacity [3]: 106.7 ng
- Kd [3]: 175 nM

Molecule: IKISGKWKAQKRAβ-(3-pyridyl)LK [BPI.72]
- pmol added to well to achieve a 30 mm^2 bactericidal zone, E. coli J5 [1]: 2,925.67 pmol
- pmol added to well to achieve a 30 mm^2 bactericidal zone, S. aureus (Staphylococcus aureus): b (no detectable activity up to 5 μg/well)
- pmol added to well to achieve a 30 mm^2 bactericidal zone, E. coli O111:B4 [2]: b (no detectable activity up to 5 μg/well)
- Heparin Capacity [3]: 102.8 ng
- Kd [3]: 145 nM

Molecule: CIKISGKWKAQKRFLK [BPI.58]
- bactericidal activity (in words) ([1]; E. coli J5): highly bactericidal
- pmol added to well to achieve a 30 mm^2 bactericidal zone, E. coli J5 [1]: 1,050.11 pmol
- pmol added to well to achieve a 30 mm^2 bactericidal zone, S. aureus (Staphylococcus aureus): b (no detectable activity up to 5 μg/well)
- pmol added to well to achieve a 30 mm^2 bactericidal zone, E. coli O111:B4 [2]: b (no detectable activity up to 5 μg/well)
- heparin binding capacity (in words) [3]: extremely high heparin capacity
- Heparin Capacity [3]: 231.2 ng
- Kd [3]: 194 nM

Molecule: CC(C)C[C@H](NC(=O)[C@H](Cc1ccccc1)NC(=O)[C@H](CCCNC(=N)N)NC(=O)[C@H](Cc1cccc2ccccc12)NC(=O)[C@H](Cc1cccc2ccccc12)NC(=O)[C@H](C)NC(=O)[C@H](CCCCN)NC(=O)[C@H](Cc1c[nH]c2ccccc12)NC(=O)[C@H](CCCCN)NC(=O)[C@H](CCCCN)NC(=O)[C@H](CC(C)C)NC(=O)[C@H](Cc1ccccc1)NC(=O)[C@H](CCCNC(=N)N)NC(=O)[C@H](Cc1cccc2ccccc12)NC(=O)[C@H](Cc1cccc2ccccc12)NC(=O)[C@H](C)NC(=O)[C@H](CCCCN)NC(=O)[C@H](Cc1c[nH]c2ccccc12)NC(=O)[C@@H](N)CCCCN)C(=O)N[C@@H](CCCCN)C(=O)O [BPI.156] (H-KWKA[1Nal][1Nal]RFLKKWKA[1Nal][1Nal]RFLK-OH; N-terminus and C-terminus assumed)
- MIC C. alb (Candida albicans): >100.00 µg/mL

Molecule: IKISGKWKAKKRFLK [BPI.79]
- pmol added to well to achieve a 30 mm^2 bactericidal zone, E. coli J5 [1]: 5,827.30 pmol
- pmol added to well to achieve a 30 mm^2 bactericidal zone, S. aureus (Staphylococcus aureus): b (no detectable activity up to 5 μg/well)
- pmol added to well to achieve a 30 mm^2 bactericidal zone, E. coli O111:B4 [2]: b (no detectable activity up to 5 μg/well)
- Heparin Capacity [3]: 110.2 ng
- Kd [3]: 199 nM

Molecule: KSKVKWLIKLFFKFKSKVKWLIKLFFKF [BPI.101]
- pmol added to well to achieve a 30 mm^2 bactericidal zone, E. coli J5 [1]: 1,329.30 pmol
- pmol added to well to achieve a 30 mm^2 bactericidal zone, S. aureus (Staphylococcus aureus): 4,388.20 pmol
- pmol added to well to achieve a 30 mm^2 bactericidal zone, E. coli O111:B4 [2]: 3,631.70 pmol
- Heparin Capacity [3]: 210.9 ng
- Kd [3]: 1900 nM

Molecule: KSKVKWLIKLFHKK [BPI.100]
- pmol added to well to achieve a 30 mm^2 bactericidal zone, E. coli J5 [1]: 407.74 pmol
- pmol added to well to achieve a 30 mm^2 bactericidal zone, S. aureus (Staphylococcus aureus): b (no detectable activity up to 5 μg/well)
- pmol added to well to achieve a 30 mm^2 bactericidal zone, E. coli O111:B4 [2]: 7,342.90 pmol
- Heparin Capacity [3]: 314.0 ng
- Kd [3]: 2930 nM

Molecule: ADADIKISGICWKAQKRFLK [BPI.71]
- pmol added to well to achieve a 30 mm^2 bactericidal zone, E. coli J5 [1]: 2,296.94 pmol
- pmol added to well to achieve a 30 mm^2 bactericidal zone, S. aureus (Staphylococcus aureus): b (no detectable activity up to 5 μg/well)
- pmol added to well to achieve a 30 mm^2 bactericidal zone, E. coli O111:B4 [2]: b (no detectable activity up to 5 μg/well)
- Heparin Capacity [3]: 158.9 ng
- Kd [3]: 75.6 nM

Molecule: IKISGKAβ-(1-naphthyl)KAQKRFLK (IKISGK[1Nal]KAQKRFLK) [BPI.67]
- pmol added to well to achieve a 30 mm^2 bactericidal zone, E. coli J5 [1]: 2,424.30 pmol
- pmol added to well to achieve a 30 mm^2 bactericidal zone, S. aureus (Staphylococcus aureus): b (no detectable activity up to 5 μg/well)
- pmol added to well to achieve a 30 mm^2 bactericidal zone, E. coli O111:B4 [2]: b (no detectable activity up to 5 μg/well)
- Heparin Capacity [3]: 250.4 ng
- Kd [3]: 108 nM

Reference: US20040023884A1, “Biologically active peptides from functional domains of bactericidal/permeability-increasing protein and uses thereof” (priority 1993, published 2004)
